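Compound exposure: 48 hours, 5 concentrations, 96-well plates. GI50: concentration for 50% inhibition of growth.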 Active and inactive are the calls of the source. Cut-off read from the data, not from the text of the source: active = GI50 up to about 1.1 µM and inactive = higher.

Some test systems named below: OVCAR-5; SF-295; HOP-92; MDA-MB-435; HCT-15; SNB-75; NCI-H522; UACC-257; UO-31; NCI-H226; HOP-62; RXF 393; SF-268; MOLT-4; TK-10; K562; HCT-116; LOX IMVI; DU-145.
Holding throughout (experiment): NCI tumour cell line growth inhibition, 48 h

`O=C1c2ccccc2C(=O)c2c(NCC3CO3)ccc(NCC3CO3)c21` (configuration not stated): the GI50 is 4.54 µM (inactive) in the assay on OVCAR-5; 3.59 µM (inactive) in the assay with SF-295; 10.3 µM (inactive) in the assay with HOP-92; 1.22 µM (inactive) in the assay with MDA-MB-435; 3.47 µM with HCT-15; 26.7 µM (inactive) with SNB-75. Moreover, the GI50 was 5.24 µM (inactive) with NCI-H522; 7.08 µM (inactive) in the assay on UACC-257; 1.87 µM (inactive) with UO-31; 8.59 µM (inactive) in the assay on NCI-H226; 1.55 µM (inactive) with HOP-62; 2.21 µM (inactive) in the assay with RXF 393. Moreover, the GI50 in the assay on SF-268 is 0.254 µM (active); in the assay with MOLT-4, 0.0119 µM (active); in the assay with TK-10, 19 µM (inactive); in the assay on K562, 0.128 µM (active); in the assay on HCT-116, 0.171 µM (active); with LOX IMVI it was 0.0132 µM (active). For the same molecule, the GI50 in the assay with DU-145 was 3.58 µM (inactive).
For the molecule `NCCCN1CCN(c2ccccc2)CC1`, the GI50 with OVCAR-5 was > 100 µM (inactive); in the assay with SF-295, 10.2 µM (inactive); in the assay with HOP-92, 86.3 µM (inactive); in the assay with MDA-MB-435 it was 51.2 µM (inactive); with HCT-15, greater than 100 µM; with SNB-75, > 100 µM (inactive). Further, the GI50 in the assay with NCI-H522 was 73.6 µM (inactive); in the assay on UACC-257 it was > 100 µM (inactive); with UO-31, > 100 µM (inactive); with NCI-H226, > 100 µM (inactive); in the assay on HOP-62, 10.9 µM (inactive); in the assay on RXF 393, > 100 µM (inactive). Also, the GI50 in the assay on SF-268 was > 100 µM (inactive); in the assay on MOLT-4, 79.3 µM (inactive); in the assay on TK-10, > 100 µM (inactive); in the assay with K562, > 100 µM (inactive); with HCT-116 it was > 100 µM (inactive); in the assay on LOX IMVI, > 100 µM (inactive). The GI50 with DU-145 is > 100 µM (inactive).
In the case of `NC(Cc1ccc(N(CCCl)CCCl)cc1)C(=O)NC(CCC(=O)O)C(=O)O` (configuration not stated), the GI50 was > 100 µM (inactive) with OVCAR-5; > 100 µM (inactive) in the assay with SF-295; > 100 µM (inactive) in the assay on HOP-92; > 100 µM (inactive) in the assay with MDA-MB-435; greater than 100 µM with HCT-15; > 100 µM (inactive) in the assay on SNB-75. For the same molecule, the GI50 in the assay with NCI-H522, with UACC-257, with UO-31, in the assay on NCI-H226, in the assay with HOP-62 and with RXF 393 was > 100 µM (inactive) in each case. Moreover, the GI50 in the assay on SF-268, with MOLT-4, with TK-10, with K562, in the assay on HCT-116 and in the assay on LOX IMVI was > 100 µM (inactive) each time. Further, the GI50 with DU-145 is > 100 µM (inactive).
Regarding `CC(C)NC(=O)OCc1c(COC(=O)NC(C)C)n(C)c2c1ccc1ccsc12`, the GI50 in the assay with OVCAR-5 is 17 µM (inactive); in the assay on SF-295, 7.62 µM (inactive); with HOP-92, 10.1 µM (inactive); in the assay on MDA-MB-435, 7.35 µM (inactive); with HCT-15 it was 9.25 µM; with SNB-75 it was 6.78 µM (inactive). Moreover, the GI50 was 5.09 µM (inactive) with NCI-H522; 13.5 µM (inactive) in the assay with UACC-257; 7.1 µM (inactive) in the assay with UO-31; 7.41 µM (inactive) in the assay on NCI-H226; 12.7 µM (inactive) in the assay on HOP-62; 6.98 µM (inactive) with RXF 393. The GI50 in the assay with SF-268 is 4.38 µM (inactive); with MOLT-4 it was 1.71 µM (inactive); in the assay on TK-10 it was 22.2 µM (inactive); in the assay with K562 it was 8.97 µM (inactive); in the assay on HCT-116 it was 9.84 µM (inactive); in the assay with LOX IMVI it was 5.57 µM (inactive). Also, the GI50 with DU-145 is 4.76 µM (inactive).
Regarding `CCCCC(C)(C/C=C/[C@@H]1[C@@H](C(O)CCCCCC(=O)OC)C(=O)C[C@H]1O[Si](C)(C)C(C)(C)C)O[Si](C)(C)C` (some centres not stated), the GI50 in the assay on OVCAR-5 was > 100 µM (inactive); in the assay with SF-295, > 100 µM (inactive); in the assay on HOP-92 it was > 100 µM (inactive); in the assay with MDA-MB-435, 74.3 µM (inactive); in the assay with HCT-15 it was 76.2 µM; in the assay on SNB-75, 56.2 µM (inactive). For the same molecule, the GI50 in the assay on NCI-H522 is 23.2 µM (inactive); in the assay on UACC-257 it was 62.1 µM (inactive); with UO-31 it was 33.7 µM (inactive); with NCI-H226 it was > 100 µM (inactive); in the assay on HOP-62, > 100 µM (inactive); in the assay on RXF 393, 54.2 µM (inactive). For the same molecule, the GI50 with SF-268 is 39.1 µM (inactive); with MOLT-4, 19.7 µM (inactive); in the assay with TK-10 it was 97.7 µM (inactive); in the assay on K562, 36.5 µM (inactive); in the assay on HCT-116, 81.1 µM (inactive); in the assay with LOX IMVI it was 45.3 µM (inactive). In the assay with DU-145, the GI50 was > 100 µM (inactive).
Consider `C/C(=N\NC(=S)N1CCCCCCCCCCCC1)c1ccccn1`, for which the GI50 is 0.971 µM (active) with OVCAR-5; 0.324 µM (active) in the assay with SF-295; 0.111 µM (active) with HOP-92; 0.15 µM (active) in the assay on MDA-MB-435; 0.216 µM with HCT-15; 0.243 µM (active) with SNB-75. For the same molecule, the GI50 was 0.0855 µM (active) in the assay with NCI-H522; 0.0689 µM (active) with UACC-257; 0.349 µM (active) in the assay with UO-31; 0.199 µM (active) in the assay with NCI-H226; 0.132 µM (active) with HOP-62; 0.0769 µM (active) with RXF 393. For the same molecule, the GI50 with SF-268 was 0.225 µM (active); with MOLT-4, 0.0318 µM (active); in the assay with TK-10, 0.166 µM (active); in the assay on K562, 0.0223 µM (active); in the assay on HCT-116, 0.447 µM (active); in the assay with LOX IMVI, 0.135 µM (active). Moreover, the GI50 with DU-145 was 0.533 µM (active).
Regarding `NCCCCNCCCNC(=O)CNC(=O)CC(O)C(N)CCCC(NC(=O)C(CN)NC(=O)C(O)CNC(=O)CC(N)c1ccc(O)cc1)C(=O)O` (configuration not stated), the GI50 in the assay with OVCAR-5 is > 10 µM (inactive); in the assay on SF-295 it was > 10 µM (inactive); in the assay with HOP-92, > 10 µM (inactive); in the assay on MDA-MB-435, > 10 µM (inactive); in the assay on HCT-15, greater than 10 µM; in the assay on SNB-75, > 10 µM (inactive). Moreover, the GI50 with NCI-H522, in the assay on UACC-257, with UO-31, with NCI-H226, with HOP-62 and in the assay on RXF 393 was > 10 µM (inactive) each time. Further, the GI50 with SF-268, in the assay with MOLT-4, with TK-10, with K562, in the assay on HCT-116 and in the assay on LOX IMVI was > 10 µM (inactive) each time. The GI50 in the assay on DU-145 is > 10 µM (inactive).
As to `Nc1ccc(-c2nc3cc(F)ccc3s2)cc1I`, the GI50 with OVCAR-5 was 0.274 µM (active); in the assay with SF-295 it was 14.2 µM (inactive); in the assay on HOP-92 it was 17.3 µM (inactive); with MDA-MB-435 it was > 80.9 µM (inactive); in the assay on HCT-15, 1.34 µM; in the assay with SNB-75 it was 16.1 µM (inactive). Also, the GI50 in the assay on NCI-H522 is 13.6 µM (inactive); in the assay with UACC-257, 49.3 µM (inactive); in the assay with UO-31 it was 16.1 µM (inactive); in the assay with NCI-H226, 0.979 µM (active); in the assay with HOP-62, 10.2 µM (inactive); in the assay on RXF 393, 15 µM (inactive). The GI50 in the assay with SF-268 is 16.5 µM (inactive); with MOLT-4, > 100 µM (inactive); with TK-10, 0.0351 µM (active); in the assay on K562 it was > 77.3 µM (inactive); in the assay on HCT-116 it was 18.5 µM (inactive); in the assay on LOX IMVI, 39.5 µM (inactive). In addition, in the assay on DU-145, the GI50 was 43.7 µM (inactive).

The values are drawn from ChEMBL document CHEMBL1201862, “PubChem BioAssay data set” (2004).
